Literature values as cited in patent publication US8481490B2, “Method of reducing plasma amylase and/or plasma lipase in patients with pancreatitis” (Amylin Pharmaceuticals, LLC, priority 2010, dated 2013).

Tested on: diabetic transgenic HIP rats
Conditions: one rat with histological features of acute pancreatitis

Compound: N[C@@H](CC(=O)N1CCn2c(nnc2C(F)(F)F)C1)Cc1cc(F)c(F)cc1F [sitagliptin]
- ductal cell turnover and metaplasia: increased ductal cell turnover and metaplasia
